Reference: ChEMBL document CHEMBL5576041, “13-oxyingenol dodecanoate derivatives induce mitophagy and ferroptosis through targeting TMBIM6 as potential anti-NSCLC agents” (Eur J Med Chem, 2024)

What was measured:
Type in all cases: functional, cell-based
HepG2 = assay: Antiproliferative activity against human HepG2 cells assessed as inhibition of cell growth incubated for 24 to 72 hrs by CCK8 assay
A549 = assay: Antiproliferative activity against human A549 cells assessed as inhibition of cell growth incubated for 24 to 72 hrs by CCK8 assay
NCI-H460 = assay: Antiproliferative activity against human NCI-H460 cells assessed as inhibition of cell growth incubated for 24 to 72 hrs by CCK8 assay

Work on `CCCCCCCCCCCC(=O)O[C@@]12C[C@@H](C)[C@]34C=C(C)[C@H](OC(=O)NC(C)C)[C@@]3(O)[C@H](O)C(CO)=C[C@H](C4=O)[C@@H]1C2(C)C` yielded an IC50 (HepG2) of 13.5 µM and an IC50 (A549) of 18.1 µM.
With `CCCCCCCCCCCC(=O)O[C@@]12C[C@@H](C)[C@]34C=C(C)[C@H](OCCC)[C@@]3(O)[C@H](O)C(CO)=C[C@H](C4=O)[C@@H]1C2(C)C` the IC50 (HepG2) was 12.7 µM and the IC50 (A549) was 30 µM.
`CCCCCCCCCCCC(=O)O[C@@]12C[C@@H](C)[C@]34C=C(C)[C@H](OC(=O)c5ccc(OC)cc5)[C@@]3(O)[C@H](O)C(CO)=C[C@H](C4=O)[C@@H]1C2(C)C` gave an IC50 (HepG2) of 14.3 µM and an IC50 (A549) of 23.6 µM.
In the case of `CCCCCCCCCCCC(=O)O[C@@]12C[C@@H](C)[C@]34C=C(C)[C@H](O)[C@@]3(O)[C@H](O)C(COC(=O)c3ccc([N+](=O)[O-])cc3)=C[C@H](C4=O)[C@@H]1C2(C)C`, the IC50 (HepG2) is reported as 15.5 µM, the IC50 (A549) is reported as 12.8 µM and the IC50 (NCI-H460) is reported as 2.6 µM.
In the case of `CCCCCCCCCCCC(=O)O[C@@]12C[C@@H](C)[C@]34C=C(C)[C@H](OC(=O)NCc5ccc(C)cc5)[C@@]3(O)[C@H](O)C(CO)=C[C@H](C4=O)[C@@H]1C2(C)C`, the IC50 (HepG2) is reported as 27 µM and the IC50 (A549) is reported as greater than 50 µM.
For `CCCCCCCCCCCC(=O)O[C@@]12C[C@@H](C)[C@]34C=C(C)[C@H](OC(=O)c5ccc(Br)cc5)[C@@]3(O)[C@H](O)C(CO)=C[C@H](C4=O)[C@@H]1C2(C)C`, the IC50 (HepG2) was greater than 50 µM, the IC50 (A549) was 10 µM and the IC50 (NCI-H460) was 7.9 µM.
`CCCCCCCCCCCC(=O)O[C@@]12C[C@@H](C)[C@]34C=C(C)[C@H](OC(=O)c5ccc(F)cc5)[C@@]3(O)[C@H](O)C(COC(=O)c3ccc(F)cc3)=C[C@H](C4=O)[C@@H]1C2(C)C` gave an IC50 (HepG2) greater than 50 µM, an IC50 (A549) of 12.5 µM and an IC50 (NCI-H460) of 5.4 µM.
Work on `CCCCCCCCCCCC(=O)O[C@@]12C[C@@H](C)[C@]34C=C(C)[C@H](OCc5ccccc5)[C@@]3(O)[C@H](O)C(CO)=C[C@H](C4=O)[C@@H]1C2(C)C` yielded an IC50 (HepG2) of 8.8 µM, an IC50 (A549) of 16.2 µM and an IC50 (NCI-H460) of 23.5 µM.
Work on `CCCCCCCCCCCC(=O)O[C@@]12C[C@@H](C)[C@]34C=C(C)[C@H](OC(=O)NC5CCCC5)[C@@]3(O)[C@H](O)C(CO)=C[C@H](C4=O)[C@@H]1C2(C)C` yielded an IC50 (HepG2) of 8.7 µM, an IC50 (A549) of 11.9 µM and an IC50 (NCI-H460) of 17.9 µM.
Work on `CCCCCCCCCCCC(=O)O[C@@]12C[C@@H](C)[C@]34C=C(C)[C@H](OC(=O)NCc5ccc(F)cc5)[C@@]3(O)[C@H](O)C(CO)=C[C@H](C4=O)[C@@H]1C2(C)C` yielded an IC50 (HepG2) of 10.9 µM, an IC50 (A549) of 9.4 µM and an IC50 (NCI-H460) of 11.8 µM.
Work on `CCCCCCCCCCCC(=O)O[C@@]12C[C@@H](C)[C@]34C=C(C)[C@H](O)[C@@]3(O)[C@H](O)C(COC(=O)c3ccc(Br)cc3)=C[C@H](C4=O)[C@@H]1C2(C)C` yielded an IC50 (A549) greater than 50 µM and an IC50 (NCI-H460) greater than 50 µM.
With `CCCCCCCCCCCC(=O)O[C@@]12C[C@@H](C)[C@]34C=C(C)[C@H](OC(=O)C5CCCCC5)[C@@]3(O)[C@H](O)C(CO)=C[C@H](C4=O)[C@@H]1C2(C)C` the IC50 (HepG2) was 13.4 µM and the IC50 (A549) was 17.1 µM.
For `CCCCCCCCCCCC(=O)O[C@@]12C[C@@H](C)[C@]34C=C(C)[C@H](O)[C@@]3(O)[C@H](O)C(COC(=O)c3ccc(F)cc3)=C[C@H](C4=O)[C@@H]1C2(C)C`, the IC50 (HepG2) was 7.6 µM, the IC50 (A549) was 21.2 µM and the IC50 (NCI-H460) was 4.5 µM.
Work on `CCCCCCCCCCCC(=O)O[C@@]12C[C@@H](C)[C@]34C=C(C)[C@H](OC(=O)c5ccc([N+](=O)[O-])cc5)[C@@]3(O)[C@H](O)C(CO)=C[C@H](C4=O)[C@@H]1C2(C)C` yielded an IC50 (HepG2) of 12 µM and an IC50 (A549) of 14.2 µM.
